{
  "source": "patent US8987209B2",
  "about": "“N-carboxyalkyl-auristatin and the use thereof” (Seattle Genetics, Inc., priority 2010, dated 2015)",
  "key": {"[1]": {"test_system": "human renal carcinoma cell line 786-0", "test": "Anti-proliferative effect on renal cell carcinoma 786-0 cell line (MTT assay)", "assay_type": "cell-based", "details": "Homo sapiens, 786-0 cells, incubation 48 to 96 hours, serum free medium or 2% FCS", "experimental": "B-1. Determination of Anti-proliferative Effects of Renal Cell Carcinoma 786-0 Cell Line:\nA defined number of cells of the human renal carcinoma cell line 786-0 were cultured in a 96 well micro titer plate in rich medium (2500 or 7.000 cells/well) and then incubated over night at 37° C./5% CO2. After 18 hours the seed medium was replaced by a serum free medium or medium with 2% FCS. The treatment began with measuring out the respective test substances in varying concentrations (10^−5 M to 10^−14 M). Incubation times of between 48 hours and 96 hours were chosen. The proliferation was determined by means of the MTT assay (ATCC, Manassas, Va., USA, catalogue no. 30-1010K). After completion of incubation period the MTT reagent was incubated with the cells for 4 hours before lysis occurred over night by measuring out the detergent. The created stain was detected at 570 nm. The proliferation of the cells, which were treated identically to the other cells but without the test substance was defined as the 100% value. The data obtained from this test represent triple determinations and at least two experiments had been carried out independently of each other."}, "HT-29 wt cell line": {"test_system": "HT-29 wt cell line", "test": "Anti-proliferative effect on HT-29 wt cell line (MTT assay)", "assay_type": "cell-based, human", "details": "Homo sapiens, HT-29 wt cells, incubation 48 to 96 hours, medium with 10% FCS", "experimental": "B-2. Determination of Anti-proliferative Effects of HT-29 wt Cell Line:\nAfter 18 hours the seed medium was replaced by a fresh medium with 10% FCS. The treatment started with measuring out the respective test substance. The dose-response curves were determined of the investigative substances with a concentration of 10^−5 M to 10^−14 M (1:10 dilutions). Incubation times of between 48 hours and 96 hours were chosen. The proliferation was detected by means of the MTT assay (ATCC, Manassas, Va., USA, catalogue no. 30-1010K). After completion of selected incubation period the MTT reagent was incubated with the cells for 4 hours before lysis occurred over night by measuring out the detergent. The created stain was detected at 570 nm. The proliferation of the cells, which were treated identically to the other cells but without the test substance, was defined as the 100% value. The data obtained from this test represent triple determinations and at least two experiments had been carried out independently of each other."}},
  "note": "Square brackets hold non-standard residues; d marks the D form. Peptide text beside a SMILES is read from it. * marks the point of attachment. NMeVal(N-(CH2)3COOH) = CC(C)[C@@H](C(=O)*)N(C)CCCC(=O)O; Dolaproine = CO[C@@H]([C@@H]1CCCN1)[C@@H](C)C(=O)O; Dil = CC[C@H](C)[C@H](NC)[C@@H](CC(=O)O)OC; X3 = CC(C)[C@@H](C(=O)*)N(C)CCCCCC(=O)O; X4 = C1C2CC3CC1CC(CO*)(C2)C3; X6 = C1C2CC3CC1CC(O*)(C2)C3; X2 = c1ccc2c(CO*)cccc2c1; NHBn = c1ccc(CN*)cc1; OBn = c1ccc(CO*)cc1; OtBu = CC(C)(C)O*",
  "data": [
    {"compound": "CC[C@H](C)[C@@H]([C@@H](CC(=O)N1CCC[C@H]1[C@H](OC)[C@@H](C)C(=O)N[C@@H](Cc1ccccc1)C(=O)OCc1cccc2ccccc12)OC)N(C)C(=O)[C@@H](NC(=O)[C@H](C(C)C)N(C)CCCC(=O)O)C(C)C", "note": "[Example 1, N-(3-carboxypropyl)-N-methyl-L-valyl-N-[(3R,4S,5S)-3-methoxy-1-{(2S)-2-[(1R,2R)-1-methoxy-2-methyl-3-{[(2S)-1-(1-naphthylmethoxy)-1-oxo-3-phenylpropane-2-yl]amino}-3-oxopropyl]pyrrolidin-1-yl}-5-methyl-1-oxoheptan-4-yl]-N-methyl-L-valinamide] ({NMeVal(N-(CH2)3COOH)}-V[Dil][Dolaproine]F-X2)", "values": [
      {"measurement": "IC50", "setting": "[1]", "value": 1.1, "unit": "nM"},
      {"measurement": "IC50", "setting": "HT-29 wt cell line", "value": 0.1, "unit": "nM"}
    ]},
    {"compound": "CC[C@H](C)[C@@H]([C@@H](CC(=O)N1CCC[C@H]1[C@H](OC)[C@@H](C)C(=O)N[C@@H](Cc1ccccc1)C(=O)OC12CC3CC(CC(C3)C1)C2)OC)N(C)C(=O)[C@@H](NC(=O)[C@H](C(C)C)N(C)CCCC(=O)O)C(C)C", "note": "[Example 2, N-(3-carboxypropyl)-N-methyl-L-valyl-N-[(3R,4S,5S)-1-{(2S)-2-[(1R,2R)-3-{[(2S)-1-(adamantane-1-yloxyy)-1-oxo-3-phenylpropane-2-yl]amino}-1-methoxy-2-methyl-3-oxopropyl]pyrrolidin-1-yl}-3-methoxy-5-methyl-1-oxoheptan-4-yl]-N-methyl-L-valinamide] ({NMeVal(N-(CH2)3COOH)}-V[Dil][Dolaproine]F-X6)", "values": [
      {"measurement": "IC50", "setting": "[1]", "value": 2.2, "unit": "nM"}
    ]},
    {"compound": "CC[C@H](C)[C@@H]([C@@H](CC(=O)N1CCC[C@H]1[C@H](OC)[C@@H](C)C(=O)N[C@@H](Cc1ccccc1)C(=O)OCC12CC3CC(CC(C3)C1)C2)OC)N(C)C(=O)[C@@H](NC(=O)[C@H](C(C)C)N(C)CCCC(=O)O)C(C)C", "note": "[Example 3, N-(3-carboxypropyl)-N-methyl-L-valyl-N-[(3R,4S,5S)-1-{(2S)-2-[(1R,2R)-3-{[(2S)-1-(adamantane-1-ylmethoxy)-1-oxo-3-phenylpropane-2-yl]amino}-1-methoxy-2-methyl-3-oxopropyl]pyrrolidin-1-yl}-3-methoxy-5-methyl-1-oxoheptan-4-yl]-N-methyl-L-valinamide] ({NMeVal(N-(CH2)3COOH)}-V[Dil][Dolaproine]F-X4)", "values": [
      {"measurement": "IC50", "setting": "[1]", "value": 0.7, "unit": "nM"}
    ]},
    {"compound": "CC[C@H](C)[C@@H]([C@@H](CC(=O)N1CCC[C@H]1[C@H](OC)[C@@H](C)C(=O)N[C@H](COCc1ccccc1)Cc1ccccc1)OC)N(C)C(=O)[C@@H](NC(=O)[C@H](C(C)C)N(C)CCCC(=O)O)C(C)C", "note": "[Example 4, N-(3-carboxypropyl)-N-methyl-L-valyl-N-[(3R,4S,5S)-1-{(2S)-2-[(1R,2R)-3-{[(2S)-1-(benzyloxy)-3-phenylpropane-2-yl]amino}-1-methoxy-2-methyl-3-oxopropyl]pyrrolidin-1-yl}-3-methoxy-5-methyl-1-oxoheptan-4-yl]-N-methyl-L-valinamide]", "values": [
      {"measurement": "IC50", "setting": "[1]", "value": 0.8, "unit": "nM"},
      {"measurement": "IC50", "setting": "HT-29 wt cell line", "value": 0.1, "unit": "nM"}
    ]},
    {"compound": "CC[C@H](C)[C@@H]([C@@H](CC(=O)N1CCC[C@H]1[C@H](OC)[C@@H](C)C(=O)N[C@@H](Cc1ccccc1)C(=O)OCc1ccccc1)OC)N(C)C(=O)[C@@H](NC(=O)[C@H](C(C)C)N(C)CCCC(=O)O)C(C)C", "note": "[Example 5, N-(3-carboxypropyl)-N-methyl-L-valyl-N-[(3R,4S,5S)-1-{(2S)-2-[(1R,2R)-3-{[(2S)-1-(benzyloxy)-1-oxo-3-phenylpropan-2-yl]amino}-1-methoxy-2-methyl-3-oxopropyl]pyrrolidin-1-yl}-3-methoxy-5-methyl-1-oxoheptan-4-yl]-N-methyl-L-valinamide] ({NMeVal(N-(CH2)3COOH)}-V[Dil][Dolaproine]F-OBn)", "values": [
      {"measurement": "IC50", "setting": "[1]", "value": 0.2, "unit": "nM"}
    ]},
    {"compound": "CC[C@H](C)[C@@H]([C@@H](CC(=O)N1CCC[C@H]1[C@H](OC)[C@@H](C)C(=O)N[C@H](C(=O)OCc1ccccc1)[C@@H](C)c1ccccc1)OC)N(C)C(=O)[C@@H](NC(=O)[C@H](C(C)C)N(C)CCCC(=O)O)C(C)C", "note": "[Example 6, N-(3-carboxypropyl)-N-methyl-L-valyl-N-[(3R,4S,5S)-1-{(2S)-2-[(1R,2R)-3-{[(2S,3S)-1-(benzyloxy)-1-oxo-3-phenylbutane-2-yl]amino}-1-methoxy-2-methyl-3-oxopropyl]pyrrolidin-1-yl}-3-methoxy-5-methyl-1-oxoheptan-4-yl]-N-methyl-L-valinamide]", "values": [
      {"measurement": "IC50", "setting": "[1]", "value": 1.1, "unit": "nM"},
      {"measurement": "IC50", "setting": "HT-29 wt cell line", "value": 0.4, "unit": "nM"}
    ]},
    {"compound": "CC[C@H](C)[C@@H]([C@@H](CC(=O)N1CCC[C@H]1[C@H](OC)[C@@H](C)C(=O)N[C@@]1(C(=O)OCc2ccccc2)C[C@@H]1c1ccccc1)OC)N(C)C(=O)[C@@H](NC(=O)[C@H](C(C)C)N(C)CCCC(=O)O)C(C)C", "note": "[Example 10, N-(3-carboxypropyl)-N-methyl-L-valyl-N-[(3R,4S,5S)-1-{(2S)-2-[(1R,2R)-3-({(1S,2R)-1-[(benzyloxy)carbonyl]-2-phenylcyclopropyl}amino)-1-methoxy-2-methyl-3-oxopropyl]pyrrolidin-1-yl}-3-methoxy-5-methyl-1-oxoheptan-4-yl]-N-methyl-L-valinamide]", "values": [
      {"measurement": "IC50", "setting": "[1]", "value": 81, "unit": "nM"}
    ]},
    {"compound": "CC[C@H](C)[C@@H]([C@@H](CC(=O)N1CCC[C@H]1[C@H](OC)[C@@H](C)C(=O)N[C@@H](Cc1ccccc1)C(=O)NCc1ccccc1)OC)N(C)C(=O)[C@@H](NC(=O)[C@H](C(C)C)N(C)CCCC(=O)O)C(C)C", "note": "[Example 15, N-(3-carboxypropyl)-N-methyl-L-valyl-N-[(3R,4S,5S)-1-{(2S)-2-[(1R,2R)-3-{[(2S)-1-(benzylamino)-1-oxo-3-phenylpropan-2-yl]amino}-1-methoxy-2-methyl-3-oxopropyl]pyrrolidin-1-yl}-3-methoxy-5-methyl-1-oxoheptan-4-yl]-N-methyl-L-valinamide] ({NMeVal(N-(CH2)3COOH)}-V[Dil][Dolaproine]F-NHBn)", "values": [
      {"measurement": "IC50", "setting": "[1]", "value": 0.9, "unit": "nM"}
    ]},
    {"compound": "CC[C@H](C)[C@@H]([C@@H](CC(=O)N1CCC[C@H]1[C@H](OC)[C@@H](C)C(=O)N[C@@H](Cc1ccccc1)C(=O)OC(C)(C)C)OC)N(C)C(=O)[C@@H](NC(=O)[C@H](C(C)C)N(C)CCCC(=O)O)C(C)C", "note": "[Example 20, N-(3-carboxypropyl)-N-methyl-L-valyl-N-[(3R,4S,5S)-1-{(2S)-2-[(1R,2R)-3-{[(2S)-1-tert.-butoxy-1-oxo-3-phenylpropane2-yl]amino}-1-methoxy-2-methyl-3-oxopropyl]pyrrolidin-1-yl}-3-methoxy-5-methyl-1-oxoheptan-4-yl]-N-methyl-L-valinamide] ({NMeVal(N-(CH2)3COOH)}-V[Dil][Dolaproine]F-OtBu)", "values": [
      {"measurement": "IC50", "setting": "[1]", "value": 0.3, "unit": "nM"}
    ]},
    {"compound": "CC[C@H](C)[C@@H]([C@@H](CC(=O)N1CCC[C@H]1[C@H](OC)[C@@H](C)C(=O)N[C@@H](Cc1c[nH]c2ccccc12)C(=O)NCc1ccccc1)OC)N(C)C(=O)[C@@H](NC(=O)[C@H](C(C)C)N(C)CCCCCC(=O)O)C(C)C", "note": "[Example 28, N-(5-carboxypentyl)-N-methyl-L-valyl-N-[(3R,4S,5S)-1-{(2S)-2-[(1R,2R)-3-{[(2S)-1-(benzylamino)-3-(1H-indol-3-yl)-1-oxopropane-2-yl]amino}-1-methoxy-2-methyl-3-oxopropyl]pyrrolidin-1-yl}-3-methoxy-5-methyl-1-oxoheptan-4-yl]-N-methyl-L-valinamide] (X3-V[Dil][Dolaproine]W-NHBn)", "values": [
      {"measurement": "IC50", "setting": "HT-29 wt cell line", "value": 1.3, "unit": "nM"}
    ]}
  ]
}
